From publication PMC9841981 (Journal of Medicinal Chemistry, 2022) come the findings set out here.

The subject of assay [1] is P. aeruginosa. As to the kind of experiment: MIC assay in CAA medium supplemented with ferric iron. The assay is classed as cell-based, Pseudomonas aeruginosa. The conditions noted are these: CAA medium supplemented with ferric iron (100 μM).
Assay [2] has as its system P. aeruginosa ΔpvdFΔpchA with additional deletion of pfeA. As to the kind of experiment: Growth kinetics, additional deletion of pfeA. The assay is classed as cell-based, Pseudomonas aeruginosa. The conditions noted are these: 10 μM, CAA medium, 30 °C, 48 h, three independent biological replicates.
Assay [3] concerns P. aeruginosa ΔpvdFΔpchA strain. The assay is described as follows: Antimicrobial susceptibility assay. The conditions noted are these: iron-restricted CAA medium, MIC assay, 24 and 48 h.

For the compound `C#CCNC(=O)CN1CCN(CC(=O)NCCNC(=O)c2cccc(O)c2O)CCN(CC(=O)NCCNC(=O)c2cccc(O)c2O)CCN(CC(=O)NCCNC(=O)c2cccc(O)c2O)CC1` [Compound 2, Alkyne-DOTAM-OH], in assay [1], the “antimicrobial effect in the presence of excess ferric iron” value is reported as “lost their antimicrobial effect”. `C#CCCCC(=O)Nc1c(CNC(=O)c2cccc(O)c2O)cc(CNC(=O)c2cccc(O)c2O)cc1CNC(=O)c1cccc(O)c1O` [Compound 4, Alkyne-MECAM-OH]: the “growth in the strain lacking PfeA (OD 600 nm)” value in assay [2] is listed as “delayed growth slightly”. In the case of `CNC(C)C1CCC(N)C(OC2C(N)CC(N)C(OC3OCC(C)(O)C(NC)C3O)C2O)O1` (stereo not drawn) [Gentamicin], the “growth inhibition / antimicrobial activity (in words)” value in assay [3] is “exhibited an activity in the expected range”.
